Test results from patent US8906909B2 (Curis, Inc., priority 2009, dated 2014).
Read-outs that look alike come from different tables or passages of the source.

Columns and labels:
Format in all cases: cell-based
Daudi cells = experiment: Cell proliferation assay Method B, Daudi; settings: Homo sapiens, NHL, 72 hours, read-out: antiproliferative activity IC50, Daudi
Description: (§1) Cancer cell lines were plated at 5,000 to 10,000 per well in 96-well flat bottomed plates with various concentration of compounds. The cells were incubated with compounds for 72 hours in the presence of 0.5% of fetal bovine serum. Growth inhibition was accessed by adenosine triphosphate (ATP) content assay using Promega CellTiter-Glo kit. Promega CellTiter-Glo kit is an ATP monitoring system based on firefly luciferase. Briefly, 16 μl of mammalian cell lysis and substrate solution was added to 84 μl of culture medium per well to lyse the cells and stabilize the ATP. The mixture was shaken and incubated for 30 minutes and subsequently the luminescence was measured.

U87MG cells = experiment: Cell proliferation assay Method B, U87MG; settings: Homo sapiens, U-87 MG; Glioblastoma; Method B; 72 hours; read-out: antiproliferative activity IC50, U87MG
Description: as §1

Pfeiffer cells = experiment: Cell proliferation assay Method B, Pfeiffer; settings: Homo sapiens, NHL, 72 hours, read-out: antiproliferative activity IC50, Pfeiffer
Description: as §1

THP-1 cells = experiment: Cell proliferation assay Method B, THP-1; settings: Homo sapiens, AML, 72 hours, read-out: antiproliferative activity IC50, THP-1
Description: as §1

RPMI-8226 cells = experiment: Cell proliferation assay Method B, RPMI-8226; settings: Homo sapiens, Multiple Myeloma, Method B, 72 hours, read-out: antiproliferative activity IC50, RPMI-8226
Summary of the method: (§2)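 Growth inhibition was scored by luciferase-based ATP luminescence (CellTiter-Glo, 30 min after lysis). This followed 72 h of compound exposure in medium with 0.5% fetal bovine serum, with 5,000–10,000 cells seeded per well.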

HCC1500 cells = experiment: Cell proliferation assay Method B, HCC1500; settings: Breast, 72 hours, read-out: antiproliferative activity IC50, HCC1500
Description: as §1

H1993 cells = experiment: Cell proliferation assay Method B, H1993; settings: Homo sapiens, NCI-H1993; NSCLC; Method B; 72 hours; read-out: antiproliferative activity IC50, H1993
Description: as §1

T47D cells = experiment: Cell proliferation assay Method B, T47D; settings: Homo sapiens, Breast, 72 hours, read-out: antiproliferative activity IC50, T47D
Description: as §1

MV-4-11 cells = experiment: Cell proliferation assay Method B, MV-4-11; settings: Homo sapiens, MV4-11, AML, 72 hours, read-out: antiproliferative activity IC50, MV-4-11
Description: as §1

Sk-Mel-28 cells = experiment: Cell proliferation assay Method B, Sk-Mel-28; settings: Homo sapiens, SK-MEL-28; Melanoma; Method B; 72 hours; read-out: antiproliferative activity IC50, Sk-Mel-28
Description: as §1

K562 cells = experiment: Cell proliferation assay Method B, K562; settings: Homo sapiens, CML, 72 hours, read-out: antiproliferative activity IC50, K562
Description: as §1

HCC1806 cells = experiment: Cell proliferation assay Method B, HCC1806; settings: Homo sapiens, Breast, 72 hours, read-out: antiproliferative activity IC50, HCC1806
Description: as §1

H1975 cells = experiment: Cell proliferation assay Method B, H1975; settings: Homo sapiens, NCI-H1975; NSCLC; Method B; 72 hours; read-out: antiproliferative activity IC50, H1975
Description: as §1

Raji cells = experiment: Cell proliferation assay Method B, Raji; settings: Homo sapiens, NHL, 72 hours, read-out: antiproliferative activity IC50, Raji
Description: as §1

P388 D1 cells = experiment: Cell proliferation assay Method B, P388 D1; settings: P388D1, Mouse Lymphoma, 72 hours, read-out: antiproliferative activity IC50, P388 D1
Description: as §1

Ca127 cells = experiment: Cell proliferation assay Method B, Ca127; settings: HNC; Method B; 72 hours; read-out: antiproliferative activity IC50, Ca127
Description: as §1

MCF-7 cells = experiment: Cell proliferation assay Method B, MCF-7; settings: Homo sapiens, MCF7, Breast, 72 hours, read-out: antiproliferative activity IC50, MCF-7
Description: as §1

BT474 cells = experiment: Cell proliferation assay Method B, BT474; settings: Homo sapiens, BT-474; Breast; Method B; 72 hours; read-out: antiproliferative activity IC50, BT474
Summary of the method: as §2

MDA-MB-231 cells = experiment: Cell proliferation assay Method B, MDA-MB-231; settings: Homo sapiens, Breast, Method B, 72 hours
Description: as §1

ZR-75-1 cells = experiment: Cell proliferation assay Method B, ZR-75-1; settings: Homo sapiens, Breast, 72 hours, read-out: antiproliferative activity IC50, ZR-75-1
Description: as §1

HL-60 cells = experiment: Cell proliferation assay Method B, HL-60; settings: Homo sapiens, AML, 72 hours, read-out: antiproliferative activity IC50, HL-60
Description: as §1

ARH77 cells = experiment: Cell proliferation assay Method B, ARH77; settings: Homo sapiens, ARH-77, Multiple Myeloma, 72 hours, read-out: antiproliferative activity IC50, ARH77
Description: as §1

MEG-01 cells = experiment: Cell proliferation assay Method B, MEG-01; settings: Homo sapiens, CML, 72 hours, read-out: antiproliferative activity IC50, MEG-01
Description: as §1

L1210 cells = experiment: Cell proliferation assay Method B, L1210; settings: Mouse LL, 72 hours, read-out: antiproliferative activity IC50, L1210
Description: as §1

MDA-MB-436 cells = experiment: Cell proliferation assay Method B, MDA-MB-436; settings: Homo sapiens, Breast, Method B, 72 hours, read-out: antiproliferative activity IC50, MDA-MB-436
Description: as §1

U937 cells = experiment: Cell proliferation assay Method B, U937; settings: Homo sapiens, U-937, AML, 72 hours, read-out: antiproliferative activity IC50, U937
Description: as §1

MDA-MB-453 cells = experiment: Cell proliferation assay Method B, MDA-MB-453; settings: Homo sapiens, Breast, 72 hours, read-out: antiproliferative activity IC50, MDA-MB-453
Description: as §1

HCC1937 cells = experiment: Cell proliferation assay Method B, HCC1937; settings: Homo sapiens, Breast, Method B, 72 hours, read-out: antiproliferative activity IC50, HCC1937
Description: as §1

MDA-MB-361 cells = experiment: Cell proliferation assay Method B, MDA-MB-361; settings: Homo sapiens, Breast, 72 hours, read-out: antiproliferative activity IC50, MDA-MB-361
Description: as §1

[1] = read-out: antiproliferative activity IC50, MDA-MB-231 (second listing, r32)

| SMILES | IC50 (Daudi cells) | IC50 (U87MG cells) | IC50 (Pfeiffer cells) | IC50 (THP-1 cells) | IC50 (RPMI-8226 cells) | IC50 (HCC1500 cells) | IC50 (H1993 cells) | IC50 (T47D cells) | IC50 (MV-4-11 cells) | IC50 (Sk-Mel-28 cells) | IC50 (K562 cells) | IC50 (HCC1806 cells) | IC50 (H1975 cells) | IC50 (Raji cells) | IC50 (P388 D1 cells) | IC50 (Ca127 cells) | IC50 (MCF-7 cells) | IC50 (BT474 cells) | IC50 (MDA-MB-231 cells; [1]) | IC50 (ZR-75-1 cells) | also measured |
| --- | --- | --- | --- | --- | --- | --- | --- | --- | --- | --- | --- | --- | --- | --- | --- | --- | --- | --- | --- | --- | --- |
| CN(Cc1cc2nc(-c3ccc(N)cc3)nc(N3CCOCC3)c2s1)c1ncc(C(=O)NO)cn1 [Compound 150, 2-(((2-(4-aminophenyl)-4-morpholinothieno[3,2-d]pyrimidin-6-yl)methyl)(methyl)amino)-N-hydroxypyrimidine-5-carboxamide] | < 10 nM | < 10 nM | < 10 nM | < 10 nM | < 10 nM | < 10 nM | < 10 nM | < 10 nM | < 10 nM | < 10 nM | 10 to 100 nM | 10 to 100 nM | < 10 nM | < 10 nM | < 10 nM | < 10 nM | < 10 nM | < 10 nM | 10 to 100 nM | 10 to 100 nM | IC50 (HL-60 cells): < 10 nM; IC50 (ARH77 cells): < 10 nM; IC50 (MEG-01 cells): 10 to 100 nM; IC50 (L1210 cells): < 10 nM; IC50 (MDA-MB-436 cells): < 10 nM; IC50 (U937 cells): < 10 nM; IC50 (MDA-MB-453 cells): < 10 nM; IC50 (HCC1937 cells): < 10 nM; IC50 (MDA-MB-361 cells): < 10 nM |
| CS(=O)(=O)N1CCN(Cc2cc3nc(-c4cccc5[nH]ncc45)nc(N4CCOCC4)c3s2)CC1 [GDC-0941, reference compound] | > 10000 nM | 100 to 1000 nM | 100 to 1000 nM | 1000 to 10000 nM | > 10000 nM | > 10000 nM | 1000 to 10000 nM | > 10000 nM | 1000 to 10000 nM | 10 to 100 nM | > 10000 nM | > 10000 nM | 100 to 1000 nM | > 10000 nM | 1000 to 10000 nM | 100 to 1000 nM | 100 to 1000 nM | 100 to 1000 nM | > 10000 nM | 100 to 1000 nM | IC50 (MDA-MB-231 cells; read-out: antiproliferative activity IC50, MDA-MB-231 (first listing, r25)): > 10000 nM; IC50 (HL-60 cells): 100 to 1000 nM; IC50 (ARH77 cells): > 10000 nM; IC50 (MEG-01 cells): > 10000 nM; IC50 (L1210 cells): > 10000 nM; IC50 (MDA-MB-436 cells): 1000 to 10000 nM; IC50 (U937 cells): 1000 to 10000 nM; IC50 (MDA-MB-453 cells): 100 to 1000 nM; IC50 (HCC1937 cells): 100 to 1000 nM; IC50 (MDA-MB-361 cells): 100 to 1000 nM |
